Read-outs that look alike come from different tables or passages of the source.
Assays:
[1] = On-chip SPE-nanoLC-MS quantification of PFCs in human blood samples
Method: Standard stock PFCs solutions are prepared by diluting PFC standards (a list of which is shown in Table 2) in methanol in polypropylene vials. All glassware is rinsed with methanol before use. For plasma samples spiked with PFCs, frozen pooled human plasma is obtained from Innovative Research Inc. (Novi, Mich.). A 5 microliter aliquot of human plasma is thawed and mixed with 2.5 microliters of internal standards (^13C8-PFOA and ^13C8-PFOS, 50 ng/ml), 2.5 microliters of PFC standards with desired concentration, and 20 microliters of cold acetonitrile with 0.1% formic acid. After vortexing for 2 min, the mixture is sonicated for 10 min and then centrifuged at 14,000 g for 15 min. 24 microliters of the supernatant is taken out and allowed to evaporate at room temperature until the volume is reduced to around 16 microliters. All samples are stored in polypropylene vials at minus 20 degree Celsius. Standard Reference Materials (SRMs) 1950 Metabolites in Human Plasma ordered from National Institute of Standards and Technology (NIST) are stored at minus 80 degree Celsius before use. NIST SRM 1950 is thawed at room temperature and prepared by the same procedure as pooled plasma samples for validation of the chip performance.
The SPE run starts with conditioning a C18-packed SPE column by flowing 20 microliters of LC solvent B (95%/5% methanol/H2O with 2 mM ammonium acetate) at 10 microliters/min through the inlet port P1. The column is then equilibrated with 20 microliters of LC solvent A (5%/95% methanol/H2O with 2 mM ammonium acetate) at 10 microliters/min. Four microliters of the sample (containing lmicroliters of plasma) are injected into a 20-microliter sample loop and loaded onto the SPE column, followed by washing with 20 microliters of LC solvent A at 10 microliters/min. Next, the analytes are eluted from the SPE column with LC solvent B at 1 microliter/min and transferred to the trap column by mixing it with another stream of LC solvent A through the port P3 (20 microliters/min). The passive microfluidic mixer including herringbone structures enables efficient mixing of two streams and thus prevents heterogeneous streaming of organic solvent from the SPE eluent, allowing the analytes to be enriched on the trap column efficiently. Finally the HPLC gradient elution at flow rate of 600 nl/min is run to separate the analytes that are to be analyzed by nanoESI-MS. The LC solvent A consists of 5%/95% methanol/H2O with 2 mM ammonium acetate, and solvent B consists of 95%/5% methanol/H2O with 2 mM ammonium acetate. […] After that, it is increased to 95% B in 5 minutes and held at 95% B for 5 minutes. Finally it returns to the initial condition (10% B) in 2 minutes and is held for 5 minutes. The total time period for each SPE-LC-MS run is about one hour. Negative-ion-mode MS detection are performed on a hybrid quadrupole/orthogonal Q-TOF API US mass spectrometer (Waters Corp.). The capillary voltage and cone voltage are set to −2.4 kV and 25 V, respectively, and the collision energy is fixed at 10 eV. The nanoelectrospray process on emitters is visualized and monitored using a Waters nanoflow camera kit equipped with a MLH-10 Zoom lenses (Computar).
The raw LC-MS data are processed using MassLynx 4.0 software package provided with the Q-TOF API US instrument (Waters Corp.). Extracted ion chromatograms (EIC) for all target analytes are generated using their corresponding precursor/product ions with a mass window of 0.10 Da. The peak area ratio of each analyte relative to its corresponding isotope-labelled internal standard is used for quantification. For perfluorocarboxylate compounds, their product ions are used for quantitation, because their product ions are more abundant (3-5 times) than precursor ions under current MS settings. The abundance ratio between the product ion and precursor ion for each perfluorocarboxylate compound is found to be consistent over the wide concentration range (1-100 ng/ml). […]

[2] = U.S. population of 20 years and older, cited from earlier work
[3] = NIST SRM 1950 human plasma; reference value provided by NIST; cited from earlier work
[4] = molecular target: human serum albumin (HSA) (Homo sapiens, UniProt P02768); details: cited from earlier work
[5] = NIST SRM 1950 human plasma, SPE-LC-MS chip
[6] = pooled human plasma, SPE-LC-MS chip

Sequence of human serum albumin (HSA) (P02768 25-609): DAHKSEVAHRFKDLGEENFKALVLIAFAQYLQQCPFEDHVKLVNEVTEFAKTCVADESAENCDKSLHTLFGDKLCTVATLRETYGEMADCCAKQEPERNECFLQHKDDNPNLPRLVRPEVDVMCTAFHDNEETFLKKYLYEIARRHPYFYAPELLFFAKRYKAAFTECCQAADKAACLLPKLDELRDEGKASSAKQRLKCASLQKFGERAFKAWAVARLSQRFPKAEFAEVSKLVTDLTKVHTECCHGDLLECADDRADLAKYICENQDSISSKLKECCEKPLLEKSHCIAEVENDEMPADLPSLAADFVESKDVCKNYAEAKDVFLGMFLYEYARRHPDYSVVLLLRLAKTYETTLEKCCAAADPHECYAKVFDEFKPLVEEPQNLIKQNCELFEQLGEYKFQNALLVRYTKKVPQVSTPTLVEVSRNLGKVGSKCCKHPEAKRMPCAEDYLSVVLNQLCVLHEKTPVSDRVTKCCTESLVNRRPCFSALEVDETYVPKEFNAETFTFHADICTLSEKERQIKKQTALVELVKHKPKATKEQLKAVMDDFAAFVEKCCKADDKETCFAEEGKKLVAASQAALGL

Compound	Concentration of PFCs, NIST SRM 1950, Measured Value ([1]; human) [ng/mL]	Concentration of PFCs, Pooled plasma, Measured Value ([1]; human) [ng/mL]	Individual serum, National Exposure Report by CDC, geometric mean (95% confidence interval) ([2]; survey year 2009-2010)	Individual serum, National Exposure Report by CDC, geometric mean (95% confidence interval) ([2]; survey year 2011-2012)	Concentration of PFCs, NIST SRM 1950, Measured Value [1, 5] [ng/mL]	Concentration of PFCs, Pooled plasma, Measured Value [1, 6] [ng/mL]	Concentration of PFCs, NIST SRM 1950, Reference Value [3] [ng/mL]	number of PFOA binding sites to human serum albumin (HSA) [4]	PFOA bound to HSA in human blood ([4]; human blood)
NS(=O)(=O)C(F)(F)C(F)(F)C(F)(F)C(F)(F)C(F)(F)C(F)(F)C(F)(F)C(F)(F)F [PFOSA, Perfluorooctane sulfonamide]	0.172 ± 0.078	0.094	<0.1; <0.1 ng/ml	<0.1; <0.1 ng/ml					
O=S(=O)(O)C(F)(F)C(F)(F)C(F)(F)C(F)(F)C(F)(F)C(F)(F)F [PFHxS, Perfluorohexane sulfonic acid]			1.61 (1.45-1.79) ng/ml	1.28 (1.14-1.43) ng/ml	3.53 ± 0.38	1.18	3.25 ± 0.080		
O=C(O)C(F)(F)C(F)(F)C(F)(F)C(F)(F)C(F)(F)C(F)(F)C(F)(F)C(F)(F)C(F)(F)F [PFDeA, Perfluorodecanoic acid]			0.289 (0.265-0.314) ng/ml	0.209(0.189-0.230) ng/ml	0.364 ± 0.033	0.279	0.322 ± 0.007		
O=S(=O)(O)C(F)(F)C(F)(F)C(F)(F)C(F)(F)C(F)(F)C(F)(F)C(F)(F)C(F)(F)F [PFOS, Perfluorooctane sulfonic acid]			9.72 (8.45-11.2) ng/ml	6.71 (6.24-7.20) ng/ml	11.1 ± 0.36	4.76	10.6 ± 0.13		
O=C(O)C(F)(F)C(F)(F)C(F)(F)C(F)(F)C(F)(F)C(F)(F)C(F)(F)F [PFOA, Perfluorooctanoic acid]								over 6	more than 90%

Source: patent publication US10627395B2, “Methods and systems for biomonitoring” (Newomics Inc., priority 2015, dated 2020)
